How the values were obtained:
PTPN2 (B16F10.4 cells) = target: T1, PTPN2 (B16F10.4 cells) (Mus musculus, UniProt Q06180); assay: HiBiT Degradation B16F10.4 PTPN2; assay type: cell-based; settings: 24.0 hours
T1 construct: HiBiT; host or cells: B16F10.4
T1 sequence (Q06180 1-406): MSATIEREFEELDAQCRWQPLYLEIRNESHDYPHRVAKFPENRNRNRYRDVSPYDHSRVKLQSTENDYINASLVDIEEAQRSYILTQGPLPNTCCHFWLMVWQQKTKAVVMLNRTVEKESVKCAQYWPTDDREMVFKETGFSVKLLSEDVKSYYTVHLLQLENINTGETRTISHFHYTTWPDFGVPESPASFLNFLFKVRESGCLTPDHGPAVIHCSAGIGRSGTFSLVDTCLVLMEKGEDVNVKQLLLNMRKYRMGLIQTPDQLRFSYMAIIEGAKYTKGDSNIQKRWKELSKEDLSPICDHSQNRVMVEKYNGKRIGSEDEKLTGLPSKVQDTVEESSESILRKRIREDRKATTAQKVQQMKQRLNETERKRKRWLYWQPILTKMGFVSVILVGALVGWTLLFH

[1] = target: T2, PTPN2 (HiBIT-PTPN2 in 293T.109 cells) (Homo sapiens, UniProt P17706); assay: HiBiT Degradation 293T.109 PTPN2 (Nano-Glo HiBiT Lytic Assay); assay type: cell-based; settings: 24.0 hours
T2 construct: expressed in transfected cells; host or cells: 293T.109 (293T WT from ATCC)
T2 sequence (P17706 1-415): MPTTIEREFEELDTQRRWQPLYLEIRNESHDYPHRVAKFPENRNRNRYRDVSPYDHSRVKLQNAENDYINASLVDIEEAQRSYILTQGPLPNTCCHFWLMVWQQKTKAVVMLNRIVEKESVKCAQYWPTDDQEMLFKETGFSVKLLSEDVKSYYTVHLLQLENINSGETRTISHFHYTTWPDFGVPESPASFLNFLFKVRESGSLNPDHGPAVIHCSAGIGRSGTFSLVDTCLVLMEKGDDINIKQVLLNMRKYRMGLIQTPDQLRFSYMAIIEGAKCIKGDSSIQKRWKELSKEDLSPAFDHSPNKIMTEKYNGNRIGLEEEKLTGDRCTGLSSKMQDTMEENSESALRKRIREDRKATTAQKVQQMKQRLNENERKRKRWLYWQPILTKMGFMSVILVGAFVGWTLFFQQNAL
How it was run: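 293T.109 cells with ectopic N-terminal HiBiT-tagged PTPN2 (5000/well) exposed to compounds for 24 h at 37 °C, 5% CO2; 11-point half-log titration from 10 μM top, duplicates. Remaining HiBiT-PTPN2 read as luminescence with Nano-Glo HiBiT lytic reagent, normalised to untreated cells (0%) and reagent-free wells.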

## CC(C)n1c(=O)n(C2CCC(=O)NC2=O)c2ccc(C3CCN(CC(=O)Nc4cccc(CS(=O)(=O)N5CC[C@H](Nc6cccc(-c7sc(C(=O)O)c(OCC(=O)O)c7Cl)c6)CC5(C)C)c4)CC3(F)F)cc21 (stereo partly drawn) [Example 176, 3-(carboxymethoxy)-4-chloro-5-[3-[[(4S)-1-[[3-[[2-[4-[1-(2,6-dioxo-3-piperidyl)-3-isopropyl-2-oxo-benzimidazol-5-yl]-3,3-difluoro-1-piperidyl]acetyl]amino]phenyl]methylsulfonyl]-2,2-dimethyl-4-piperidyl]amino]phenyl]thiophene-2-carboxylic acid]
PTPN2 (B16F10.4 cells)
  DC50: 0.05 to 0.2 µM
[1]
  DC50: 0.05 to 0.2 µM

## CC1(C)C[C@@H](Nc2cccc(-c3sc(C(=O)O)c(OCC(=O)O)c3Cl)c2)CCN1S(=O)(=O)Cc1cccc(NC(=O)NCCCc2ccc3c4c(cccc24)N(C2CCC(=O)NC2=O)C3=O)c1 (stereo partly drawn) [Example 177, 3-(carboxymethoxy)-4-chloro-5-[3-[[(4S)-1-[3-[3-[[1-(2,6-dioxo-3-piperidyl)-2-oxo-benzo[cd]indol-5-yl]propylcarbamoylamino]phenyl]methylsulfonyl]-2,2-dimethyl-4-piperidyl]amino]phenyl]thiophene-2-carboxylic acid]
PTPN2 (B16F10.4 cells)
  DC50: 0.05 to 0.2 µM
[1]
  DC50: 0.05 to 0.2 µM

## Cn1c(=O)n(C2CCC(=O)NC2=O)c2ccc(-c3ccc(CC(=O)Nc4cccc(CS(=O)(=O)N5CC[C@H](Nc6cccc(-c7sc(C(=O)O)c(OCC(=O)O)c7Cl)c6)CC5(C)C)c4)cc3F)cc21 (stereo partly drawn) [Example 178, 3-(carboxymethoxy)-4-chloro-5-(3-(((4S)-1-((3-(2-(4-(1-(2,6-dioxopiperidin-3-yl)-3-methyl-2-oxo-2,3-dihydro-1H-benzo[d]imidazol-5-yl)-3-fluorophenyl)acetamido)benzyl)sulfonyl)-2,2-dimethylpiperidin-4-yl)amino)phenyl)thiophene-2-carboxylic acid]
PTPN2 (B16F10.4 cells)
  DC50: 0.05 to 0.2 µM
[1]
  DC50: 0.05 to 0.2 µM

## Cn1c(=O)n(C2CCC(=O)NC2=O)c2ccc(N3CCC(O)(CC(=O)Nc4cccc(CS(=O)(=O)N5CC[C@@H](Nc6cccc(-c7sc(C(=O)O)c(OCC(=O)O)c7Cl)c6)CC5(C)C)c4)CC3)cc21 (stereo partly drawn) [Example 179, 3-(carboxymethoxy)-4-chloro-5-(3-(((4R)-1-((3-(2-(1-(1-(2,6-dioxopiperidin-3-yl)-3-methyl-2-oxo-2,3-dihydro-1H-benzo[d]imidazol-5-yl)-4-hydroxypiperidin-4-yl)acetamido)benzyl)sulfonyl)-2,2-dimethylpiperidin-4-yl)amino)phenyl)thiophene-2-carboxylic acid]
PTPN2 (B16F10.4 cells)
  DC50: 0.2 to 1 µM
[1]
  DC50: 0.2 to 1 µM

## CC(C)n1c(=O)n(C2CCC(=O)NC2=O)c2ccc(C3CCN(C(=O)Nc4cccc(CS(=O)(=O)N5CC[C@H](Nc6cccc(-c7sc(C(=O)O)c(OCC(=O)O)c7Cl)c6)CC5(C)C)c4)CC3(F)F)cc21 (stereo partly drawn) [Example 181, 3-(carboxymethoxy)-4-chloro-5-[3-[[(4S)-1-[[3-[[4-[1-(2,6-dioxo-3-piperidyl)-3-isopropyl-2-oxo-benzimidazol-5-yl]-3,3-difluoro-piperidine-1-carbonyl]amino]phenyl]methylsulfonyl]-2,2-dimethyl-4-piperidyl]amino]phenyl]thiophene-2-carboxylic acid]
PTPN2 (B16F10.4 cells)
  DC50: < 0.05 µM
[1]
  DC50: < 0.05 µM

## Cn1c(=O)n(C2CCC(=O)NC2=O)c2ccc(N3CCC(O)(CC(=O)Nc4cccc(CS(=O)(=O)N5CC[C@H](Nc6cccc(-c7sc(C(=O)O)c(OCC(=O)O)c7Cl)c6)CC5(C)C)c4)CC3)cc21 (stereo partly drawn) [Example 183, 3-(carboxymethoxy)-4-chloro-5-[3-[[(4S)-1-[[3-[[2-[1-[1-(2,6-dioxo-3-piperidyl)-3-methyl-2-oxo-benzimidazol-5-yl]-4-hydroxy-4-piperidyl]acetyl]amino]phenyl]methylsulfonyl]-2,2-dimethyl-4-piperidyl]amino]phenyl]thiophene-2-carboxylic acid]
PTPN2 (B16F10.4 cells)
  DC50: 0.05 to 0.2 µM
[1]
  DC50: 0.05 to 0.2 µM

## Cn1c(=O)n(C2CCC(=O)NC2=O)c2ccc(C3CN(CC(=O)Nc4cccc(CS(=O)(=O)N5CC[C@H](Nc6cccc(-c7sc(C(=O)O)c(OCC(=O)O)c7Cl)c6)CC5(C)C)c4)C3)cc21 (stereo partly shown) [Example 184]
PTPN2 (B16F10.4 cells)
  DC50: 0.05 to 0.2 µM
[1]
  DC50: < 0.05 µM

## Cn1nc(C2CCC(=O)NC2=O)c2ccc(C3CCN(C(=O)Nc4cccc(CS(=O)(=O)N5CC[C@@H](Nc6cccc(-c7sc(C(=O)O)c(OCC(=O)O)c7Cl)c6)CC5(C)C)c4)CC3(F)F)cc21 (stereo partly drawn) [Example 185, 3-(carboxymethoxy)-4-chloro-5-(3-(((4R)-1-((3-(4-(3-(2,6-dioxopiperidin-3-yl)-1-methyl-1H-indazol-6-yl)-3,3-difluoropiperidine-1-carboxamido)benzyl)sulfonyl)-2,2-dimethylpiperidin-4-yl)amino)phenyl)thiophene-2-carboxylic acid]
PTPN2 (B16F10.4 cells)
  DC50: < 0.05 µM
[1]
  DC50: 0.2 to 1 µM

## CC1(C)C[C@@H](Nc2cccc(-c3sc(C(=O)O)c(OCC(=O)O)c3Cl)c2)CCN1S(=O)(=O)Cc1cccc(NC(=O)N2CCC(c3ccc4c(c3)n(C(C)(C)C)c(=O)n4C3CCC(=O)NC3=O)CC2)c1 (stereo partly drawn) [Example 186, 5-(3-(((4S)-1-((3-(4-(3-(tert-butyl)-1-(2,6-dioxopiperidin-3-yl)-2-oxo-2,3-dihydro-1H-benzo[d]imidazol-5-yl)piperidine-1-carboxamido)benzyl)sulfonyl)-2,2-dimethylpiperidin-4-yl)amino)phenyl)-3-(carboxymethoxy)-4-chlorothiophene-2-carboxylic acid]
PTPN2 (B16F10.4 cells)
  DC50: 0.05 to 0.2 µM
[1]
  DC50: 0.05 to 0.2 µM

## CC1(C)C[C@@H](Nc2cccc(-c3sc(C(=O)O)c(OCC(=O)O)c3Cl)c2)CCN1S(=O)(=O)Cc1cccc(N2CCN(C3CCN(c4ccc5c6c(cccc46)C(=O)N5C4CCC(=O)NC4=O)CC3)C2=O)c1 (stereo partly drawn) [Example 189, 3-(carboxymethoxy)-4-chloro-5-(3-(((4S)-1-((3-(3-(1-(1-(2,6-dioxopiperidin-3-yl)-2-oxo-1,2-dihydrobenzo[cd]indol-6-yl)piperidin-4-yl)-2-oxoimidazolidin-1-yl)benzyl)sulfonyl)-2,2-dimethylpiperidin-4-yl)amino)phenyl)thiophene-2-carboxylic acid]
PTPN2 (B16F10.4 cells)
  DC50: < 0.05 µM
[1]
  DC50: < 0.05 µM

## Cn1c(=O)n(C2CCC(=O)NC2=O)c2ccc(C3CCN(C(=O)Nc4cccc(CS(=O)(=O)N5CC[C@H](Nc6cccc(-c7sc(C(=O)O)c(OCC(=O)O)c7Cl)c6)CC56CC6)c4)CC3)cc21 (stereo partly drawn) [Example 190, 3-(carboxymethoxy)-4-chloro-5-(3-(((7S)-4-((3-(4-(1-(2,6-dioxopiperidin-3-yl)-3-methyl-2-oxo-2,3-dihydro-1H-benzo[d]imidazol-5-yl)piperidine-1-carboxamido)benzyl)sulfonyl)-4-azaspiro[2.5]octan-7-yl)amino)phenyl)thiophene-2-carboxylic acid]
PTPN2 (B16F10.4 cells)
  DC50: 0.05 to 0.2 µM
[1]
  DC50: < 0.05 µM

## Cn1c(=O)n(C2CCC(=O)NC2=O)c2ccc(Nc3cccc(CC(=O)Nc4cccc(CS(=O)(=O)N5CC[C@H](Nc6cccc(-c7sc(C(=O)O)c(OCC(=O)O)c7Cl)c6)CC5(C)C)c4)c3)cc21 (stereo partly drawn) [Example 191, 3-(carboxymethoxy)-4-chloro-5-(3-(((4S)-1-((3-(2-(3-((1-(2,6-dioxopiperidin-3-yl)-3-methyl-2-oxo-2,3-dihydro-1H-benzo[d]imidazol-5-yl)amino)phenyl)acetamido)benzyl)sulfonyl)-2,2-dimethylpiperidin-4-yl)amino)phenyl)thiophene-2-carboxylic acid]
PTPN2 (B16F10.4 cells)
  DC50: 0.05 to 0.2 µM
[1]
  DC50: 0.05 to 0.2 µM

## Cn1c(=O)n(C2CCC(=O)NC2=O)c2ccc(-c3cccc(CC(=O)Nc4cccc(CS(=O)(=O)N5CC[C@H](Nc6cccc(-c7sc(C(=O)O)c(OCC(=O)O)c7Cl)c6)CC5(C)C)c4)c3)cc21 (stereo partly drawn) [Example 192, 3-(carboxymethoxy)-4-chloro-5-(3-(((4S)-1-((3-(2-(3-(1-(2,6-dioxopiperidin-3-yl)-3-methyl-2-oxo-2,3-dihydro-1H-benzo[d]imidazol-5-yl)phenyl)acetamido)benzyl)sulfonyl)-2,2-dimethylpiperidin-4-yl)amino)phenyl)thiophene-2-carboxylic acid]
PTPN2 (B16F10.4 cells)
  DC50: 0.05 to 0.2 µM
[1]
  DC50: 0.05 to 0.2 µM

## CC1(C)C[C@H](Nc2cccc(-c3sc(C(=O)O)c(OCC(=O)O)c3Cl)c2)CCN1S(=O)(=O)Cc1cccc(NC(=O)N2CCC(c3ccc4c(C5CCC(=O)NC5=O)cnn4c3)CC2)c1 (stereo partly drawn) [Example 193, 3-(carboxymethoxy)-4-chloro-5-(3-(((4R)-1-((3-(4-(3-(2,6-dioxopiperidin-3-yl)pyrazolo[1,5-a]pyridin-6-yl)piperidine-1-carboxamido)benzyl)sulfonyl)-2,2-dimethylpiperidin-4-yl)amino)phenyl)thiophene-2-carboxylic acid]
PTPN2 (B16F10.4 cells)
  DC50: 0.2 to 1 µM
[1]
  DC50: 0.2 to 1 µM
